Assay results reported in PMC10812941, “Selenium-Containing (Hetero)Aryl Hybrids as Potential Antileishmanial Drug Candidates: In Vitro Screening against L. amazonensis” (Biomedicines, 2024).
Like-named read-outs stand apart in the source and are kept apart here.

How the values were obtained:
[1] = tested on: L. amazonensis promastigotes; assay: Anti-promastigote assay (resazurin viability); settings: for IC50: 48 h; for SI (CC50 on murine peritoneal macrophages/IC50 on promastigotes): peritoneal macrophages vs promastigotes; for Selectivity Index (SI) CC50 J774 / IC50 promastigotes: J774A.1 vs promastigotes; for Selectivity Index (SI) CC50 NIH/3T3 / IC50 promastigotes: NIH/3T3 vs promastigotes
Procedure: (§1) Parasites in the exponential growth phase were used for the in vitro anti-promastigote assay, while those in the stationary phase were used for the anti-amastigote assay. Intracellular amastigote forms were obtained by infecting murine peritoneal macrophages with promastigotes.
Cell viability was assessed using the resazurin (Sigma-Aldrich) assay. A solution of resazurin (Sigma-Aldrich, USA) at 0.2 mg·mL^−1 was added to each well, and after 4 h of incubation at 26 °C, the absorbances at 570 nm and 600 nm were acquired, and the viability calculation for all wells was performed based on the formula and instructions provided by the AlamarBlue® manufacturer’s website (Bio-Rad, Hercules, CA, USA) [41]. Cell viability was evaluated from the optical density and compared to untreated cells. […] The half-maximal inhibitory concentration (IC50) values for each compound were calculated using a nonlinear dose–response regression curve generated by Prism 5 (GraphPad Software, USA).

[2] = tested on: L. amazonensis intracellular amastigotes; assay: Anti-amastigote assay in infected murine peritoneal macrophages; settings: for IC50: Leishmania amazonensis, Peritoneal macrophage, in Mus musculus, 24 h, read-out: IC50 L. amazonensis Amastigotes
Procedure: as §1
Plates were incubated at 37 °C with 5% CO2 for 1 h to allow adhesion, which was confirmed by microscopy. […] Supernatants were removed after treatment, and cells were washed twice with PBS, fixed with Bouin’s solution (Sigma-Aldrich, USA), and stained with Giemsa (Sigma-Aldrich, USA) diluted 1:10 in distilled water. Coverslips were dehydrated through an acetone/xylene gradient (100%, 70%, 50%, 30%, and 100% each from Sigma-Aldrich) and mounted for microscopic visualization. The total number of intracellular amastigotes was counted in 200 cells per coverslip in three replicates using an optical microscope. The half-maximal inhibitory concentration (IC50) values were calculated for each compound using a nonlinear regression curve in GraphPad Prism 5.0 software (GraphPad Software, San Diego, CA, USA).

[3] = in vitro; settings: mouse
[4] = in vitro; settings: mouse; remark: listed apart in the source
[5] = Leishmania amazonensis, read-out: IC50 L. amazonensis Promastigotes, 48 h, resazurin
[6] = read-out: IC50 L. amazonensis Promastigotes, resazurin

SMILES	IC50 [1, 5]	SI (CC50 on murine peritoneal macrophages/IC50 on promastigotes) [1]	IC50 [2]	CC50 at 48 h [3]	CC50 at 48 h [4]	Selectivity Index (SI) CC50 J774 / IC50 promastigotes [1]	Selectivity Index (SI) CC50 NIH/3T3 / IC50 promastigotes [1]	Selectivity Index (SI) CC50 J774 / IC50 amastigotes [2]	Selectivity Index (SI) CC50 NIH/3T3 / IC50 amastigotes [2]	SI (CC50 on murine peritoneal macrophages/IC50 on promastigotes) ([1]; listed as 105)	IC50 [1, 6]	SI (CC50 on murine peritoneal macrophages/IC50 on promastigotes) ([1]; listed as 108)	Selectivity Index (SI) CC50 J774 / IC50 amastigotes ([2]; J774A.1 vs intracellular amastigotes)	Selectivity Index (SI) CC50 NIH/3T3 / IC50 amastigotes ([2]; NIH/3T3 vs intracellular amastigotes)	CC50 at 48 h ([3]; J774A.1 macrophage cells)	CC50 at 48 h ([4]; NIH/3T3 fibroblast cells)
Cc1cn2c([Se]c3ccccc3)c(-c3ccccc3)nc2s1 [MRK-111]	17.6 ± 1.18 µM	11.40	> 50 µM	> 200 µM	> 200 µM	–	–	–	–	–	–	–	–	–	–	–
Oc1ccc2ccccc2c1[Se]c1ccccc1 [MRK-102]	15.2 ± 1.12 µM	13.20	> 50 µM	> 200 µM	> 200 µM	–	–	–	–	–	–	–	–	–	–	–
Cc1ccn2c([Se]c3ccccc3)c(-c3ccccc3)nc2c1 [MRK-113]	41 ± 1.31 µM	4.88	15.9 ± 1.69 µM	> 200 µM	> 200 µM	4.88	4.88	12.55	12.55	–	–	–	–	–	–	–
CC(C)(C)c1cc(O)cc(C(C)(C)C)c1[Se]C#N [MRK-105]	15.5 µM	12.92	> 50 µM	–	–	4.94	7.22	–	–	16.43	12.2 ± 1.12 µM	–	–	–	–	–
N#C[Se]Cc1cc(=O)oc2cc(O)ccc12 [MRK-108]	4.23 ± 2 µM	> 47.31	> 50 µM	> 200 µM	> 200 µM	–	–	–	–	–	–	47.31	–	–	–	–
C[C@@H]1[C@H](O)[C@@H](C)/C=C/C=C/C=C/C=C/C=C/C=C/C=C/[C@H](O[C@@H]2O[C@H](C)[C@@H](O)[C@H](N)[C@@H]2O)C[C@@H]2O[C@](O)(C[C@@H](O)C[C@@H](O)[C@H](O)CC[C@@H](O)C[C@@H](O)CC(=O)O[C@H]1C)C[C@H](O)[C@H]2C(=O)O [ANFB, amphotericin B, reference compound]	9.41 ± 1.13 µM	2.67	0.97 ± 1.14 µM	–	–	2.91	2.05	–	–	–	9.4 ± 1.13 µM	–	28.19	25.92	27.3 ± 0.92 µM	19.3 ± 1.01 µM
Cc1ccc(-c2nnc([Se]c3ccccc3)o2)cc1 [MRK-103]	15.5 ± 1.13 µM	12.92	> 50 µM	> 200 µM	> 200 µM	–	–	–	–	–	–	–	–	–	–	–
COc1ccccc1[Se]c1c(-c2ccccc2)nc2cc(C)ccn12 [MRK-107]	27.4 ± 1.24 µM	7.31	18.3 ± 1.5 µM	> 200 µM	> 200 µM	7.31	7.31	10.92	10.92	–	–	–	–	–	–	–
